# How the values were obtained:
# [1] = test system: LPS-induced impairment of fibrinolysis (lung fibrin deposition); assay: Rat lung fibrin deposition model (batroxobin, 125I-fibrinogen, LPS); format: in vivo
# Experimental: This model was used to test the hypothesis that inhibition of endogenous TAFI can enhance fibrinolysis. Batroxobin, a thrombin-like enzyme, was used to hydrolyze fibrinogen to fibrin, which deposits in tissues, especially in the lungs. Following tissue deposition, fibrin is lysed into fibrin degradation products, which return to the blood. In this study, ^125I-labeled fibrinogen was given and tissue accumulation of fibrin and the subsequent fibrinolysis were assessed by the mobilization of ^125I from blood to tissue (generation of ^125I-fibrin from ^125I-fibrinogen) and back to blood (generation of ^125I-fibrin degradation products from ^125I-fibrin) after batroxobin injection. LPS has been known to stinulate the release of numerous endogenous factors that can inhibit fibrinolytic activity, including TAFI, thus preventing spontaneous fibrinolysis in the lungs.
# Male Sprague-Dawley rates (300-350g) were randomly divided into three groups: • (1) untreated (controls) • (2) treated with LPS • (3) treated with LPS+TAFI inhibitor. Animals assigned to receive LPS (0.5 mg/kg, iv) were injected 3 hours before batroxobin injection. Twenty minutes before batroxobin injection, all animals were anesthetized with pentobarbital (65 mg/kg, ip), and saline-filled catheters were placed into the right carotid artery and left jugular vein for blood collection and drug injection, respectively. ^125I-fibrinogen (1 mCi) was administered to all animals 10 min. prior to batroxobin injection and animals assigned to receive the TAFI inhibitor (10 mg/kg) were injected 5 min. before the batroxobin. The rats were sacrificed at either 5 or 30 min after batroxobin injection.
# [2] = test system: bleeding time after sectioning of the cuticle; assay: Dog cuticle bleeding time; format: in vivo
# Excerpt: (§1) A dog femoral artery thrombosis model was used to test that TAFI inhibition by i.v. administration of a potent and selective TAFI inhibitor would potentiate fibrinolysis. A stable, occlusive thrombus was formed using FeCl2 to chemically injure the arterial wall. Thrombotic occlusion and reperfusion (effective fibrinolysis) were monitored by measuring blood flow with a Doppler flow probe. Since no spontaneous reperfusion is observed in this model, a sub-maximal dose of tPA was used to enhance baseline activity. […] Bleeding propensity was measured by determining the time required for bleeding to stop following a series of standardized wounds (sectioning of the cuticle).
# (§2) Male Beagle dogs (8-12 kg) were anesthetized with isoflurane (2-3%). […] Femoral artery blood flow, systemic blood pressure, heart rate and breathing patterns were monitored and recorded on a data acquisition system during the experiment. […] The time for the cut to cease bleeding was recorded as the primary bleeding time.
# (§3) After stabilization of hemodynamic parameters, a blood sample was taken for drug levels. […] Bleeding time was determined and a blood sample was collected 20 min after the start of the tPA infusion. […]
# α2-antiplasmin = assay: Ex vivo α2-antiplasmin activity (colorimetric assay) in dog plasma
# Experimental: Plasma drug concentration was measured using LC/MS/MS techniques. Ex vivo α2-antiplasmin, an indicator of systemic plasmin activation, was measured by colorimetric assay. Exogenously activated TAFI (10 nM) was added into the blank plasma and TAFI activity measured by colorimetric assays was defined as 100%. Plasma from TAFI inhibitor-administered dogs were treated in the same way, and results were expressed as the percent inhibition of the spiked TAFI activity.
# [3] = test system: rat femoral artery occlusive thrombus; assay: Rat femoral artery thrombosis model (rose Bengal + light irradiation), incidence of reperfusion; format: in vivo
# Excerpt: A stable, occlusive thrombus was formed by giving rose Bengal intravenously followed by light irradiation. Free radicals generated at the site of irradiation result in endothelial damage that causes an occlusive thrombus. Thrombotic occlusion and effective fibrinolysis (reperfusion) were monitored by measuring blood flow with a Doppler flow probe. Since no spontaneous reperfusion is observed in this model, a threshold dose of tPA was used to mimic the endogenous fibrinolytic activity observed in patients with STEMI undergoing PCI (16-25% spontaneous reperfusion rate). […] Based on the results of phanmacokinetic studies and in vitro clot lysis assays, two doses (3 and 10 mg/kg) of a TAFI inhibitor of the invention, (2S)-2-(3-(amino)methylphenyl)-3-(((1R)-1-(3-phenylpropylsulfonyl)amino-2-methylpropyl)(hydroxy)phosphinoyl)propanoic acid trifluoroacetate, were used.
# Male Wistar rats (241-270 g) were anesthetized with sodium pentobarbital. A section of the right femoral artery was isolated carefully, and a pulse Doppler flow probe was placed for monitoring blood flow. The left carotid artery, both jugular veins, and left femoral vein were cannulated with polyethylene tubes for monitoring blood pressure and heart rate, for injection of tPA, rose Bengal and TAFI inhibitor, respectively. Blood flow, blood pressure and heart rate were continuously recorded on a thermal recorder during the experiment. An occlusive thrombus was induced in the right femoral artery by bolus injection of rose Bengal followed by light exposure. Occlusive thrombus was observed approximately 6 min after the injection of rose Bengal and start of irradiation.
# Rats were assigned to four groups for the tPA dose response as follows: • (1) Vehicle (saline; n=8) • (2) tPA (72 μg/kg/min=2.5 million I.U./kg/hr; n=8) • (3) tPA (115 μg/kg/min=4 million I.U./kg/hr; n=10) • (4) tPA (230 μg/kg/min=8 million I.U./kg/hr; n=8)
# tPA or vehicle was infused via the right jugular vein beginning 10 min after the formation of occlusive thrombus and the infusion was continued for 60 min.
# Rats were assigned to three groups for the TAFI inhibitor efficacy study as follows: • (1) tPA threshold (72 μg/kg/min, n=16) • (2) low TAFI inhibitor (3 mg/kg+0.03 mg/kg/min) and tPA threshold (72 μg/kg/min) (n=8) • (3) high TAFI inhibitor (10 mg/kg+0.10 mg/kg/min) and tPA threshold (72 μg/kg/min) (n=8)
# Administration of TAFI inhibitor or vehicle via the left femoral vein was started simultaneously with tPA via the right jugular vein beginning 10 min after the formation of occlusive thrombus, both given as a bolus over 1 min and infusion for 59 min. […] The incidence of reperfusion was used as the index of drug efficacy.
# [4] = test system: dog femoral artery occlusive thrombus; assay: Dog femoral artery thrombosis model (FeCl2 injury), reperfusion and time to occlusion; format: in vivo; conditions: TAFI inhibitor pre-treatment (10 min before FeCl2), n=6, p=ns vs control group
# Excerpt: as §1, §2, §3
# [5] = test system: rabbit jugular vein thrombus; assay: Rabbit jugular vein thrombosis model, thrombus weight; format: in vivo; conditions: for Thrombus weight (wet): 90 min
# Experimental: Thrombosis was initiated ex vivo and introduced into the jugular vein. Treatment compound(s) were administered to the animals after thrombus formation and introduction. Fibrinolysis was assessed by measuring clot weight at the end of the study. […] The threshold dose of tPA was combined with either a TAFI inhibitor of the invention, (2S)-2-(3-(amino)methylphenyl)-3-(((1R)-1-(3-phenylpropylsulfonyl)amino-2-methylpropyl)(hydroxy)phosphinoyl)propanoic acid trifluoroacetate, or the peptidic TAFI inhibitor CPI, which was used as a positive control to confirm the effect of TAFI inhibition in this model.
# Male New Zealand white rabbits (2.35-3.14 kg) were anesthetized using isoflurane. A segment of the jugular vein was isolated with ligatures and injected with a mixture of autologous citrated blood and thromboplastin to induce thrombus formation. The thrombus formed in the isolated venous segment was allowed to mature for 30 minutes prior to releasing the ligatures and initiating thrombolytic treatment.
# Rabbits were divided into the following treatment groups (10-12 animals per group): • (1) vehicle; phosphate buffered saline (PBS) • (2) threshold fibrinoloytic dose tPA (10 μg/kg+67 μg/kg/hr) • (3) CPI (500 μg/kg+300 μg/kg/hr)+tPA low (10 μg/kg+67μg/kg/hr) • (4) low TAFI inhibitor (0.3 mg/kg+0.14 mg/kg/hr)+tPA low (10 μg/kg+67 μg/kg/hr) • (5) high TAFI inhibitor (3 mg/kg+1.4 mg/kg/hr)+tPA low ([…]+67 μg/kg/hr) • (6) maximally effective dose tPA (30 μg/kg+200 μg/kg/hr)
# Blood samples were collected from the left jugular vein for measurement of TAFI inhibitor plasma drug levels prior to releasing the ligatures (time=0), and at 1, 10, 30, 60, and 90 minutes after starting thrombolytic treatment. CPI, TAFI inhibitor, tPA or vehicle were administered as bolus injections, followed by a constant infusion for 90 minutes via the right marginal ear vein. At the end of 90 minutes, the rabbits were euthanized and the thrombus was removed for determination of wet and dry weights. The relative effects of all treatment groups were the same, regardless of whether wet or dry weights were utilized for analysis, so only wet weights are used in the subsequent discussion. The assessment of bleeding risk was evaluated by measuring the weight of blood loss from toe nail clips performed prior to thrombolytic treatment, and at the end of the study. Re-bleeding from the previous site following initial hemostasis was also recorded.
# Data were analyzed using ANOVA followed by the LSD test for a comparison of differences in thrombus weight in the various treatment groups. In the vehicle-treated animals (group 1) thrombus weights averaged 98±9 mg. […] When either CPI (group 3) or TAFI inhibitor (group 4 or 5) was given together with the low dose of tPA, the threshold effect of tPA was enhanced, and a significant reduction in thrombus weights was observed when compared to the vehicle-treated group. This enhancement of fibrinolytic activity of tPA for the CPI group (68±10 mg) and the low dose TAFI inhibitor group (63±10 mg) was similar to results obtained with the high dose TAFI inhibitor group (56±13 mg). In animals treated with the higher dose of tPA (group 6), a significant reduction in thrombus weight (41±7 mg) was observed compared to both the vehicle and low dose tPA groups.
molecule,measurement,setting,value
"CC(C)[C@H](NS(=O)(=O)CCCc1ccccc1)P(=O)(O)C[C@H](C(=O)O)c1cccc(CN)c1.O=C(O)C(F)(F)F [TAFI inhibitor, (2S)-2-(3-(amino)methylphenyl)-3-(((1R)-1-(3-phenylpropylsulfonyl)amino-2-methylpropyl)(hydroxy)phosphinoyl)propanoic acid trifluoroacetate]",CPM in the lungs versus control rats,"[1]; LPS + TAFI inhibitor 10 mg/kg, 30 min after batroxobin",not different
same,Blood CPM and 125I in the lungs,"[1]; LPS + TAFI inhibitor 10 mg/kg, 30 min after batroxobin, versus LPS-treated rats",prevented LPS-induced recovery of blood CPM and resulted in ^125I retention in the lungs
same,Radioactive readings in blood or lungs,"[1]; TAFI inhibitor 10 mg/kg in LPS-treated rats, 5 min after batroxobin, in relation to LPS-treated rats",did not change
same,Bleeding time,"[2]; TAFI inhibitor 10 mg/kg pre-thrombus + tPA 10 μg/kg/min, versus tPA alone",without further prolongation of bleeding time
same,Inhibition of α2-antiplasmin activity induced by tPA infusion,α2-antiplasmin; TAFI inhibitor administered pre- or post-thrombus formation + tPA,did not change
same,Incidence of reperfusion,"[3]; 3 mg/kg TAFI inhibitor + tPA (72 μg/kg/min) post-thrombus formation, p = ns",25% (2/8) p = ns
same,Incidence of reperfusion,"[3]; 10 mg/kg TAFI inhibitor + tPA (72 μg/kg/min) post-thrombus formation, p < 0.03",63% (5/8) p < 0.03
same,Incidence of reperfusion,"[3]; high TAFI inhibitor dose 10 mg/kg + 0.10 mg/kg/min i.v. + tPA threshold 72 μg/kg/min, post-thrombus, reperfused/total rats",5/8
same,Incidence of reperfusion,"[3]; low TAFI inhibitor dose 3 mg/kg + 0.03 mg/kg/min i.v. + tPA threshold 72 μg/kg/min, post-thrombus, reperfused/total rats",2/8
same,Time to occlusion induced by FeCl2,[4],31.1 ± 3.9 min
same,% Reduction Thrombus Weight,"[5]; 0.3 mg/kg TAFI inhibitor + tPA post-thrombus formation, p = ns",36% p = ns
same,% Reduction Thrombus Weight,"[5]; 3 mg/kg TAFI inhibitor + tPA post-thrombus formation, p = ns",43% p = ns
same,Thrombus weight (wet),[5]; high TAFI inhibitor 3 mg/kg + 1.4 mg/kg/hr + tPA low (10 pg/kg + 67 μg/kg/hr),56 ± 13 mg
same,Thrombus weight (wet),[5]; low TAFI inhibitor 0.3 mg/kg + 0.14 mg/kg/hr + tPA low (10 μg/kg + 67 μg/kg/hr),63 ± 10 mg
"tPA: tissue-type plasminogen activator, a plasminogen activator used as thrombolytic agent",Bleeding time,"[2]; dog, in vivo",prolonged dose-dependently
same,Activity of α2-antiplasmin (indicator of systemic plasmin activation),"α2-antiplasmin; tPA infusion, dose dependence",dose-dependently reduced
same,Incidence of reperfusion,"[3]; TAFI inhibitor efficacy study, tPA threshold dose 72 μg/kg/min alone, reperfused/total rats",2/16
same,Incidence of reperfusion,"[3]; tPA dose response study, tPA 72 μg/kg/min infused 60 min, starting 10 min after occlusive thrombus, reperfused/total rats",1/8
same,Incidence of reperfusion,"[3]; tPA dose response study, tPA 115 μg/kg/min infused 60 min, reperfused/total rats",5/10
same,Incidence of reperfusion,"[3]; tPA dose response study, tPA 230 μg/kg/min infused 60 min, reperfused/total rats",6/8
same,Thrombus weight (wet),[5]; higher (maximally effective) dose tPA 30 μg/kg + 200 μg/kg/hr alone,41 ± 7 mg
same,Thrombus weight (wet),"[5]; low (threshold) dose tPA 10 μg/kg + 67 μg/kg/hr alone, not significant vs vehicle",80 ± 11 mg
same,% Reduction Thrombus Weight,[5]; threshold dose tPA (10 μg/kg + 1 μg/kg/min) alone,18%
